According to paper PMC7822874, “Chemoprotective antimalarials identified through quantitative high-throughput screening of Plasmodium blood and liver stage parasites” (Scientific Reports, 2021):

Tested on: Plasmodium falciparum Dd2 asexual blood stage parasites
Assay: microbe, parasite or virus in culture
Parameters: species or system Plasmodium falciparum Dd2 in human erythrocytes; single determination (one 11-point concentration-response curve)
Conditions: Plasmodium falciparum, DD2, Erythrocyte, 72 h; read-out: AC50

SMILES	AC50
CCCCCCNC(=O)Cc1csc2nc(C)c(-c3cc(C)n(-c4cccc(C)c4)n3)c(=O)n12 [NCGC00473470-01]	15 µM
O=C(c1nc(-c2cccc(C(F)(F)F)c2)c2cnccn12)N1CCCC1 [NCGC00476432-01]	10.6 µM
O=C(NCc1cccs1)c1nc(-c2cccc(C(F)(F)F)c2)c2cnccn12 [NCGC00476439-01]	9.44 µM
CC(C)CNC(=O)c1nc(-c2ccc(Cl)cc2)c2cnccn12 [NCGC00476461-01]	8.63 µM
N#CC1CCN(C(=O)c2nc(-c3cccc(C(F)(F)F)c3)c3cnccn23)CC1 [NCGC00476479-01]	16.8 µM
CC(=O)Nc1ccc(CN2CC(N(C)c3ccccc3C)C2)cc1 [NCGC00476647-01]	12.2 µM
Cc1ccccc1N(C)C1CN(Cc2ccc(C#N)cc2)C1 [NCGC00476680-01]	3.85 µM
Cc1ccccc1N(C)C1CN(Cc2ccccc2)C1 [NCGC00476681-01]	19.3 µM
Fc1ccc(OC2CN(CC3CCCCC3)C2)cc1F [NCGC00476687-01]	17.2 µM
Cc1cc(OC2CN([S+](=O)([O-])c3cccs3)C2)ccc1F [NCGC00476695-01]	15.3 µM
O=C1CC2(CCN(Cc3ccccc3)CC2)Oc2ccccc21 [NCGC00476829-01]	13.7 µM
O=C1CC2(CCN(Cc3cccs3)CC2)Oc2cc(Cl)ccc21 [NCGC00476854-01]	5.31 µM
O=C1CC2(CCN(CC3CCCCC3)CC2)Oc2cc(Cl)ccc21 [NCGC00476867-01]	1.5 µM
O=C1Nc2ccccc2CC12CCN2Cc1ccccn1 (stereo not drawn) [NCGC00477299-01]	4.33 µM
O=C1NC2(CCN(Cc3ccc(C(F)(F)F)cc3)CC2)COc2ccccc21 [NCGC00477447-01]	8.41 µM
CN(C)c1ccc(CN2CCC3(CC2)COc2ccccc2C(=O)N3)cc1 [NCGC00477464-01]	2.66 µM
O=C1NC2(CCN(C(=O)c3ccc(C(F)(F)F)cc3)CC2)COc2ccccc21 [NCGC00477468-01]	8.41 µM

SMILES	AC50
c1ccc2c(c1)CNC1(CCN(Cc3cccc4ccccc34)CC1)CO2 [NCGC00477546-01]	7.5 µM
O=C(c1ccccc1F)N1CCC2(CC1)COc1ccccc1CN2 [NCGC00477550-01]	4.33 µM
COc1ccc(C(=O)N2CCC3(CC2)COc2ccccc2CN3)cc1 [NCGC00477552-01]	10.6 µM
O=C(c1ccc2c(c1)OCO2)N1CCC2(CC1)COc1ccccc1CN2 [NCGC00477555-01]	5.31 µM
O=c1nc(C2CCCN(CC3CCCCC3)C2)[nH]n1-c1ccc(Cl)cc1 (stereo not drawn) [NCGC00477729-01]	6.68 µM
O=c1nc(C2CCCN(Cc3ccccn3)C2)[nH]n1-c1ccc(Cl)cc1 (stereo not drawn) [NCGC00477746-01]	2.37 µM
Cc1ccc([S+](=O)([O-])N2CCC3(CCN(Cc4cccs4)c4ccccc4O3)CC2)cc1 [NCGC00478057-01]	18.8 µM
CCOc1ccccc1CN1CCC2(CCN(CCC(C)C)CC2)Oc2ccccc21 [NCGC00478188-01]	3.35 µM
O=C(Nc1ccc(Cl)cc1)N1CCC2(CC1)CCN(Cc1cccs1)c1ccccc1O2 [NCGC00478210-01]	8.41 µM
O=C1CC2(CCN([S+](=O)([O-])c3cccc(C(F)(F)F)c3)CC2)Oc2ccccc2N1c1ccccc1 [NCGC00478390-01]	6.68 µM
O=C1NCN(Cc2ccc(Cl)cc2)C12CCN(CC1CC1)CC2 [NCGC00478768-01]	9.68 µM
CC(C)CCN1CCn2c(nn(-c3ccc([N+](=O)[O-])cc3)c2=O)C1 [NCGC00479600-01]	17.2 µM
COc1ccccc1CN1CCn2c(nn(-c3ccc([N+](=O)[O-])cc3)c2=O)C1 [NCGC00479607-01]	5.96 µM
Cc1nc2c(c(-c3ccc(O)cc3)n1)CN(Cc1ccc(C(F)(F)F)cc1)CCC2 [NCGC00480263-01]	4.22 µM
CC(C)c1nc2c(c(-c3ccc(O)cc3)n1)CN(Cc1cccc(F)c1)CC2 [NCGC00480376-01]	9.44 µM
Oc1ccc(-c2nc(C3CC3)nc3c2CN(CC2CCCCC2)CC3)cc1 [NCGC00480438-01]	6.68 µM
